# In patent publication US12344597B2, “Alkoxy-substituted pyridinyl derivatives as LPA1 receptor antagonists and their use in the treatment of fibrosis” (IDORSIA PHARMACEUTICALS LTD, priority 2018, dated 2025):
# Counter-ions that a name gives are not always drawn.
# Target: human LPA1 receptor (Homo sapiens (Human), UniProt Q92633)
# Assay: Beta-arrestin recruitment assay to determine IC50 values for human LPAR1
# Assay type: cell-based
# Conditions: antagonist mode, Tango EDG2-bla U2OS cells, LPA 18:1 500 nM final
# In short: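 Tango EDG2-bla U2OS cells: LPA-driven beta-arrestin/TEV protease recruitment releases Gal4-VP16, inducing beta-lactamase reporter read with live-cell substrate. Cells seeded 20 h at 37 °C beforehand. IC50 is antagonist concentration inhibiting 50% of maximal response.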
# Chain of human LPA1 receptor (Q92633 whole entry): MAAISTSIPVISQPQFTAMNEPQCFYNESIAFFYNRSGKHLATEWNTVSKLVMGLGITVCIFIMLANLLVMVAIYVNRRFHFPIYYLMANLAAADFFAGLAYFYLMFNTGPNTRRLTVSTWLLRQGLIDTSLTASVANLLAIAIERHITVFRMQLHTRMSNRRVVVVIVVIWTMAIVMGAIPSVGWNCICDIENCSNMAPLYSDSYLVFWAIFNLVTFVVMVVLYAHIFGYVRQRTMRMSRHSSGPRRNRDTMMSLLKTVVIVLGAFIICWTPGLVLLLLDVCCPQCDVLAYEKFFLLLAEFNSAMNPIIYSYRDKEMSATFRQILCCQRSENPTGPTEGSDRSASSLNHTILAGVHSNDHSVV
row,Compound,IC50
1,"Cc1ccc(NC(=O)C2(c3ccccc3C(C)C)CN(Cc3cccc(C(=O)O)n3)C2)c(OC(F)F)n1 [Ex 11-46, 6-((3-((2-(difluoromethoxy)-6-methylpyridin-3-yl)carbamoyl)-3-(2-isopropylphenyl)azetidin-1-yl)methyl)picolinic acid]",17 nM
2,"COC(=O)c1cc(CN2CC(C(=O)Nc3ccc(C)nc3OC(F)F)(c3ccccc3C(C)C)C2)ccn1 [Ex 11-50, methyl 4-((3-((2-(difluoromethoxy)-6-methylpyridin-3-yl)carbamoyl)-3-(2-isopropylphenyl)azetidin-1-yl)methyl)picolinate]",47 nM
3,N-(2-(difluoromethoxy)-6-methylpyridin-3-yl)-1-(3-(hydroxyamino)propanoyl)-3-(2-isopropylphenyl)azetidine-3-carboxamide [Ex 12-133],140 nM
4,"Cc1ccc(NC(=O)C2(c3ccccc3C(C)C)CN(Cc3ccc(C(=O)O)o3)C2)c(OC(F)F)n1 [Ex 11-57, 5-((3-((2-(difluoromethoxy)-6-methylpyridin-3-yl)carbamoyl)-3-(2-isopropylphenyl)azetidin-1-yl)methyl)furan-2-carboxylic acid]",12 nM
5,"CC(C)c1ccccc1C1(C(=O)Nc2cccnc2OC(F)F)CNC1 [Ex 7, N-(2-(difluoromethoxy)pyridin-3-yl)-3-(2-isopropylphenyl)azetidine-3-carboxamide hydrochloride]",413 nM
6,"Cc1ccc(NC(=O)C2(c3ccccc3C(C)C)CCNC2)c(OC(F)F)n1 (stereo not drawn) [Ex 10, N-(2-(difluoromethoxy)-6-methylpyridin-3-yl)-3-(2-isopropylphenyl)pyrrolidine-3-carboxamide]",7 nM
7,N-(6-ethoxy-2-methoxypyridin-3-yl)-3-(2-isopropylphenyl)azetidine-3-carboxamide [Ex 9],163 nM
8,"CC(=O)N(CCC(=O)N1CC(C(=O)Nc2ccc(C)nc2OC(F)F)(c2ccccc2C(C)C)C1)OCc1ccccc1 [Ex 12-131, 1-(3-(N-(benzyloxy)acetamido)propanoyl)-N-(2-(difluoromethoxy)-6-methylpyridin-3-yl)-3-(2-isopropylphenyl)azetidine-3-carboxamide]",640 nM
9,"COC(=O)CCC(=O)N1CC(C(=O)Nc2ccc(C)nc2OC)(c2ccccc2C(C)C)C1 [Ex 12-61, Methyl 4-(3-(2-isopropylphenyl)-3-((2-methoxy-6-methylpyridin-3-yl)carbamoyl)azetidin-1-yl)-4-oxobutanoate]",276 nM
10,"Cc1ccc(NC(=O)C2(c3ccccc3C(C)C)CN(C(=O)Cn3cnnc3)C2)c(OC(F)F)n1 [Ex 12-23, 1-(2-(4H-1,2,4-triazol-4-yl)acetyl)-N-(2-(difluoromethoxy)-6-methylpyridin-3-yl)-3-(2-isopropylphenyl)azetidine-3-carboxamide]",21 nM
11,"CC(C)c1ccccc1C1(C(=O)Nc2cccnc2OC(F)F)CN(C(=O)CC(C)(C)C(=O)O)C1 [Ex 12-84, 4-(3-((2-(difluoromethoxy)pyridin-3-yl)carbamoyl)-3-(2-isopropylphenyl)azetidin-1-yl)-2,2-dimethyl-4-oxobutanoic acid]",51 nM
12,"Cc1ccc(NC(=O)C2(c3ccccc3C(C)C)CN(C(=O)CC3CCNCC3)C2)c(OC(F)F)n1 [Ex 12-138, N-(2-(difluoromethoxy)-6-methylpyridin-3-yl)-3-(2-isopropylphenyl)-1-(2-(piperidin-4-yl)acetyl)azetidine-3-carboxamide]",43 nM
13,"Cc1ccc(NC(=O)C2(c3ccccc3C(C)C)CN(Cc3ccnn3C)C2)c(OC(F)F)n1 [Ex 11-22, N-(2-(difluoromethoxy)-6-methylpyridin-3-yl)-3-(2-isopropylphenyl)-1-((1-methyl-1H-pyrazol-5-yl)methyl)azetidine-3-carboxamide]",108 nM
14,"Cc1ccc(NC(=O)C2(c3ccccc3C(C)C)CN(C(=O)CN(C)S(N)(=O)=O)C2)c(OC(F)F)n1 [Ex 12-8, N-(2-(difluoromethoxy)-6-methylpyridin-3-yl)-3-(2-isopropylphenyl)-1-(N-methyl-N-sulfamoylglycyl)azetidine-3-carboxamide]",10 nM

# Next, values leading:
row,IC50,Compound
1,7 nM,"Cc1ccc(NC(=O)C2(c3ccccc3C(C)C)CCN(S(=O)(=O)CCC(=O)O)CC2)c(OC(F)F)n1 [Ex 13-8, 3-((4-((2-(difluoromethoxy)-6-methylpyridin-3-yl)carbamoyl)-4-(2-isopropylphenyl)piperidin-1-yl)sulfonyl)propanoic acid]"
2,447 nM,"Cc1ccc(NC(=O)C2(c3ccccc3C3CCOCC3)CN(c3nc(C(=O)O)co3)C2)c(OC(F)F)n1 [Ex 32, 2-(3-((2-(difluoromethoxy)-6-methylpyridin-3-yl)carbamoyl)-3-(2-(tetrahydro-2H-pyran-4-yl)phenyl)azetidin-1-yl)oxazole-4-carboxylic acid]"
3,48 nM,"Cc1ccc(NC(=O)C2(c3ccccc3C(C)C)CN(C(=O)N[C@@H](C)C(=O)O)C2)c(OC(F)F)n1 [Ex 17-9, (3-((2-(difluoromethoxy)-6-methylpyridin-3-yl)carbamoyl)-3-(2-isopropylphenyl)azetidine-1-carbonyl)-L-alanine]"
4,5 nM,"Cc1ccc(NC(=O)C2(c3c(F)cccc3C(C)C)CN(C(=O)CC(C)(C)C(=O)O)C2)c(OC(F)F)n1 [Ex 39-4, 4-(3-((2-(difluoromethoxy)-6-methylpyridin-3-yl)carbamoyl)-3-(2-fluoro-6-isopropylphenyl)azetidin-1-yl)-2,2-dimethyl-4-oxobutanoic acid]"
5,7620 nM,"Cc1ccc(NC(=O)C2(c3nccnc3C(C)C)CNC2)c(OC(F)F)n1 [Ex 68, N-(2-(difluoromethoxy)-6-methylpyridin-3-yl)-3-(3-isopropylpyrazin-2-yl)azetidine-3-carboxamide]"
6,37 nM,"Cc1ccc(NC(=O)C2(c3ccccc3C(C)C)CN(c3nnn[nH]3)C2)c(OC(F)F)n1 [Ex 20, N-(2-(difluoromethoxy)-6-methylpyridin-3-yl)-3-(2-isopropylphenyl)-1-(1H-tetrazol-5-yl)azetidine-3-carboxamide]"
7,33 nM,"Cc1ccc(NC(=O)C2(c3ccccc3C3CCOCC3)CN(S(N)(=O)=O)C2)c(OC(F)F)n1 [Ex 30, N-(2-(difluoromethoxy)-6-methylpyridin-3-yl)-1-sulfamoyl-3-(2-(tetrahydro-2H-pyran-4-yl)phenyl)azetidine-3-carboxamide]"
8,40 nM,"Cc1ccc(C2(C(=O)Nc3ccc(C)nc3OC(F)F)CN(C(=O)CC(C)(C)C(=O)O)C2)c(C(C)C)c1 [Ex 39-3, 4-(3-((2-(difluoromethoxy)-6-methylpyridin-3-yl)carbamoyl)-3-(2-isopropyl-4-methylphenyl)azetidin-1-yl)-2,2-dimethyl-4-oxobutanoic acid]"
9,48 nM,"CCN(CC(=O)O)CC(=O)N1CC(C(=O)Nc2ccc(C)nc2OC(F)F)(c2ccccc2C(C)C)C1 [Ex 58, N-(2-(3-((2-(difluoromethoxy)-6-methylpyridin-3-yl)carbamoyl)-3-(2-isopropylphenyl)azetidin-1-yl)-2-oxoethyl)-N-ethylglycine]"
10,2 nM,"CC(C)c1ccccc1C1(C(=O)Nc2ncc(Cl)cc2OC(F)F)CN(S(N)(=O)=O)C1 [Ex 81-3, N-(5-chloro-3-(difluoromethoxy)pyridin-2-yl)-3-(2-isopropylphenyl)-1-sulfamoylazetidine-3-carboxamide]"
11,5 nM,"C=C(C)C(=O)OCCNC(=O)N1CCC(C(=O)Nc2ccc(C)nc2OC(F)F)(c2ccccc2C(C)C)CC1 [Ex 17-21, 2-(4-((2-(difluoromethoxy)-6-methylpyridin-3-yl)carbamoyl)-4-(2-isopropylphenyl)piperidine-1-carboxamido)ethyl methacrylate]"
12,3 nM,"Cc1ccc(NC(=O)C2(c3ccccc3C(C)C)CN(c3ccnc(C)n3)C2)c(OC(F)F)n1 [Ex 18-34, N-(2-(difluoromethoxy)-6-methylpyridin-3-yl)-3-(2-isopropylphenyl)-1-(2-methylpyrimidin-4-yl)azetidine-3-carboxamide]"
13,17 nM,"Cc1ccc(NC(=O)C2(c3ccccc3C(C)C)CN(c3cc(C(=O)O)ncn3)C2)c(OC(F)F)n1 [Ex 18-13, 6-(3-((2-(difluoromethoxy)-6-methylpyridin-3-yl)carbamoyl)-3-(2-isopropylphenyl)azetidin-1-yl)pyrimidine-4-carboxylic acid]"
14,23 nM,"Cc1ccc(NC(=O)C2(c3ccccc3C3CCOCC3)CNC2)c(OC(F)F)n1 [Ex 28, N-(2-(difluoromethoxy)-6-methylpyridin-3-yl)-3-(2-(tetrahydro-2H-pyran-4-yl)phenyl)azetidine-3-carboxamide]"
15,10 nM,"CC(C)c1ccccc1C1(C(=O)Nc2cccnc2OC(F)F)CN(S(N)(=O)=O)C1 [Ex 15-6, N-(2-(difluoromethoxy)pyridin-3-yl)-3-(2-isopropylphenyl)-1-sulfamoylazetidine-3-carboxamide]"
16,33 nM,"Cc1ccc(NC(=O)C2(c3c(C)cccc3C(C)C)CNC2)c(OC(F)F)n1 [Ex 33, N-(2-(difluoromethoxy)-6-methylpyridin-3-yl)-3-(2-isopropyl-6-methylphenyl)azetidine-3-carboxamide]"
17,15 nM,"Cc1ccc(C(C)C)c(C2(C(=O)Nc3ccc(C)nc3OC(F)F)CN(C(=O)CC(C)(C)C(=O)O)C2)c1 [Ex 39-2, 4-(3-((2-(difluoromethoxy)-6-methylpyridin-3-yl)carbamoyl)-3-(2-isopropyl-5-methylphenyl)azetidin-1-yl)-2,2-dimethyl-4-oxobutanoic acid]"
18,120 nM,"CCOC(=O)c1nccc(N2CC(C(=O)Nc3ccc(C)nc3OC(F)F)(c3ccccc3C(C)C)C2)n1 [Ex 18-10, ethyl 4-(3-((2-(difluoromethoxy)-6-methylpyridin-3-yl)carbamoyl)-3-(2-isopropylphenyl)azetidin-1-yl)pyrimidine-2-carboxylate]"
19,185 nM,"Cc1ccc(NC(=O)C2(c3ccccc3C3CCOCC3)CN(C(=O)CC(C)(C)C(=O)O)C2)c(OC(F)F)n1 [Ex 31-6, 4-(3-((2-(difluoromethoxy)-6-methylpyridin-3-yl)carbamoyl)-3-(2-(tetrahydro-2H-pyran-4-yl)phenyl)azetidin-1-yl)-2,2-dimethyl-4-oxobutanoic acid]"
